# Results reported in patent US11872200B2, “GABA agonists in the treatment of disorders associated with metabolic syndrome and GABA combinations in treatment or prophylaxis of type I diabetes” (The Regents of the University of California, priority 2010, dated 2024).
# Columns and labels:
# [1] = tested on: β-cells; assay: STZ oxidative-stress induced β-cell apoptosis, pancreas sections co-stained with TUNNEL and anti-insulin; assay type: in vivo, C57Bl/6 mice; details: for relative area of insulin+ cells to the total area of the islets: 48 hours after STZ (FIG. 10C); for STZ mediated oxidative-stress-induced apoptosis: 48 hours after STZ, N=4 mice/group (FIG. 10A)
# Description: C57Bl/6 mice received a moderate dose of STZ and then given plain water (control), water+GABA, or water+baclofen (a GABAB-R agonist). 48 hours later their pancreas were removed and sections co-stained with TUNNEL and anti-insulin.
# N=4 mice/group, at least 100 islets analyzed per group.
# [2] = tested on: Treg responses; assay: In vitro culture system with IL-2 and anti-CD3; assay type: cell-based; details: preliminary data; IL-2 and anti-CD3 in an in vitro culture system
# Excerpt: It is noted that the GABA treatment can both suppress autoimmune responses by working on GABA-A receptors on immune cells, and promote B-cell survival through their GABA-B receptors.
# [3] = tested on: syngenic islet grafts in diabetic NOD mice; assay: Syngenic islet graft survival in diabetic NOD mice; assay type: in vivo; details: diabetic NOD mice treated 28 days, then NOD.scid islets under kidney capsule; 10 week observation period (FIG. 8)
# Excerpt: Mice were given insulin as needed. After 28 days the mice received NOD.scid islets under their kidney capsule and insulin treatment was discontinued. Data shown are individual mouse blood glucose levels post-transplantation (FIG. 8A-8D). […] Dashed line indicates blood glucose of 250 mgs/dL.
# [4] = tested on: HFD-fed mice; assay: GABA in drinking water of high fat diet (HFD) fed mice; assay type: in vivo
# Description: Mice were fed high fat diet (HFD) or “western diet” causing them to gain weight, become obese, and develop glucose intolerance, insulin resistance, and metabolic syndrome. The mice were provided either normal water, or water that contained GABA (6 mg/ml). The weight, food intake, water intake, glucose tolerance, insulin sensitivity and blood glucose levels of the mice was monitored over 5 months.
# [5] = tested on: newly diabetic NOD mice; assay: Reversal of hyperglycemia in newly diabetic NOD mice; assay type: in vivo; details: GABA 6 mgs/ml in drinking water, GAD/alum 100 μg sc on day 1 and 14 (FIG. 9)
# Description: Mice were considered diabetic after two blood glucose>250 mgs/dL. […] Data shown are blood glucose levels in individual mice given no treatment (FIG. 9A), GABA alone (6 mgs/ml in drinking water) (FIG. 9B), or GABA+GAD/alum (100 μg sc on day 1 and 14) (FIG. 9C).
molecule,measurement,setting,value
"NCC(CC(=O)O)c1ccc(Cl)cc1 (racemic) [baclofen, (RS)-4-amino-3-(4-chlorophenyl)butanoic acid, reference compound]",relative area of insulin+ cells to the total area of the islets,[1],"greater β-cell area, but this did not reach the level of statistical significance"
same,STZ mediated oxidative-stress-induced apoptosis,[1]; baclofen in water,significantly inhibits
"NCCCC(=O)O [GABA, 4-aminobutanoic acid]",Treg responses,[2],can promote Treg responses
same,insulin-expressing cells per 100 islet cells,[1]; 48 hours after STZ (FIG. 10B),preserving insulin-expressing β-cell s
same,relative area of insulin+ cells to the total area of the islets,[1],preserve the area of insulin producing β-cells
same,STZ mediated oxidative-stress-induced apoptosis,[1]; GABA 2 mg/ml in water,significantly inhibits
same,STZ mediated oxidative-stress-induced apoptosis,[1]; GABA 6 mgs/ml in water,significantly inhibits
same,time until mice became diabetic again after receiving the graft,[3],about 3 weeks
same,glucose tolerance,[4]; GABA 6 mg/ml in water (FIG. 3),improved
same,insulin sensitivity,[4]; GABA 6 mg/ml in water (FIG. 4),improved
same,fasting blood glucose levels,[4]; GABA 6 mg/ml in water (FIG. 5),reduced
same,HFD-induced obesity (body weight),[4]; GABA 6 mg/ml in water (FIG. 6),mitigated
same,infiltration of macrophages into white adipose tissue,"[4]; GABA 6 mg/ml in water (FIG. 7, top panel)",inhibited
same,mass of adipocytes,[4]; GABA 6 mg/ml in water (FIG. 7 bottom panel),significantly reduced
same,reversal of hyperglycemia,[5],"prolongs a state of modest hyperglycemia for a short period, after which the mice progress to severe hyperglycemia"
GAD/alum: glutamic acid decarboxylase (GAD) β-cell antigen vaccine given with alum adjuvant,time until mice became diabetic again after receiving the graft,[3],about 3 weeks
same,reversal of hyperglycemia,[5],cannot reverse hyperglycemia
insulin B-chain: β-cell antigen used as antigen-based therapy,reversal of hyperglycemia,[5],cannot reverse hyperglycemia
